Results taken from patent US20250179078A1, “INHIBITORS OF NLRP3” (PTC THERAPEUTICS, INC., priority 2022, published 2025).

Biological target: T1, NLRP3 (Homo sapiens, UniProt Q96P20)
T1 construct: host or cells: THP-1 cells differentiated with PMA
Assay: IL-1β Secretion Assay (NLRP3-dependent IL1β secretion in THP1 cells)
Assay type: cell-based
Conditions: PMA-differentiated THP-1 cells; compounds incubated 20 h; 2.5 μM Nigericin 3 h; HTRF IL-1β readout; read-out: IC50 IL-1β Inhibition
In short: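 IL-1β in conditioned media, measured by HTRF after 3 h 2.5 μM nigericin stimulation, gave % inhibition fitted logistically for IC50. Before that, PMA-differentiated (100 ng/mL, 24 h) THP-1 cells were preincubated 20 h with 7 compound concentrations (3-fold serial, DMSO 1:200).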

T1 sequence (Q96P20 whole entry): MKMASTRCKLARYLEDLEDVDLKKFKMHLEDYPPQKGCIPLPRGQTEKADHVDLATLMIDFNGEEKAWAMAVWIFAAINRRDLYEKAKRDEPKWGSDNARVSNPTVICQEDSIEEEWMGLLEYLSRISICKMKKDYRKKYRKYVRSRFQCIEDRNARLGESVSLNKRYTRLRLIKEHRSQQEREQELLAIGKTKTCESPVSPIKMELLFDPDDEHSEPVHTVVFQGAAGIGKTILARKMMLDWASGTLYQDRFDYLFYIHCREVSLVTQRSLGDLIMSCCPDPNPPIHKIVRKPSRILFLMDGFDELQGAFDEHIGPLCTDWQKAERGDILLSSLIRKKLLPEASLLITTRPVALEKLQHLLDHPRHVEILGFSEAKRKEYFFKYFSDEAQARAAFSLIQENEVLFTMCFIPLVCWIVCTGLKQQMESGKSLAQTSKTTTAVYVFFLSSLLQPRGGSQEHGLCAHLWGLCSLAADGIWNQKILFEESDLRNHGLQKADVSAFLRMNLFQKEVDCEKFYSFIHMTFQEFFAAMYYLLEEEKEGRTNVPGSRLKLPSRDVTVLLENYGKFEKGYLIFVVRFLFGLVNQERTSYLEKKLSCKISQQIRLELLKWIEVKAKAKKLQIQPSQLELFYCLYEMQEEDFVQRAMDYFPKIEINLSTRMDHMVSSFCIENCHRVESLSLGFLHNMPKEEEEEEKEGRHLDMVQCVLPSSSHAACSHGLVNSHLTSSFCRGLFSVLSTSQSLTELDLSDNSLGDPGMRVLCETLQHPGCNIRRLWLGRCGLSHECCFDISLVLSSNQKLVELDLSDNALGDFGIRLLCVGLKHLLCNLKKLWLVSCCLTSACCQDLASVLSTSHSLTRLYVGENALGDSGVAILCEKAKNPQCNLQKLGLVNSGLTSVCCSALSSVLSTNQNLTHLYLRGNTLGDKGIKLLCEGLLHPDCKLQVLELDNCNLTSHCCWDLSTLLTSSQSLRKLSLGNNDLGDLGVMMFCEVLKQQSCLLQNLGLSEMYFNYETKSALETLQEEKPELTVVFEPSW

Row | SMILES | IC50 [µM]
1 | O[C@H]1CCCC[C@@H]1Nc1nnc(-c2ccc(C(F)(F)F)cc2C(F)(F)F)c2cccn12 [Compound 99, (1S,2S)-2-({1-[2,4-bis(trifluoromethyl)phenyl]pyrrolo[1,2-d][1,2,4]triazin-4-yl}amino)cyclohexan-1-ol] | 0.1 to 0.3
2 | Cc1ccc(-c2nnc(NC(C)c3cccc(O)c3)n3cccc23)c(OC(F)F)c1 (stereo not drawn) [Compound 100, 3-[1-({1-[2-(difluoromethoxy)-4-methylphenyl]pyrrolo[1,2-d][1,2,4]triazin-4-yl}amino)ethyl]phenol] | 0.001 to 0.01
3 | COc1ccc(-c2nnc(N[C@H]3C[C@@](C)(O)C3)n3cccc23)c(C2CC2)c1 [Compound 104, (1s,3s)-3-{[1-(2-cyclopropyl-4-methoxyphenyl)pyrrolo[1,2-d][1,2,4]triazin-4-yl]amino}-1-methylcyclobutan-1-ol] | 0.01 to 0.1
4 | COc1ccc(-c2nnc(Nc3cc[nH]n3)n3cccc23)c(C2CC2)c1 [Compound 105, 1-(2-cyclopropyl-4-methoxyphenyl)-N-(1H-pyrazol-3-yl)pyrrolo[1,2-d][1,2,4]triazin-4-amine] | 0.1 to 0.3
5 | COc1ccc(-c2nnc(N[C@@H]3CCC[C@H](O)C3)n3cccc23)c(C2CC2)c1 [Compound 106, (1S,3R)-3-{[1-(2-cyclopropyl-4-methoxyphenyl)pyrrolo[1,2-d][1,2,4]triazin-4-yl]amino}cyclohexan-1-ol] | 0.01 to 0.1
6 | COc1ccc(-c2nnc(N[C@H]3C[C@@](C)(O)C3)n3cc(C)cc23)c(OC(F)(F)F)c1 [Compound 108, (1s,3s)-3-({1-[4-methoxy-2-(trifluoromethoxy)phenyl]-7-methylpyrrolo[1,2-d][1,2,4]triazin-4-yl}amino)-1-methylcyclobutan-1-ol] | 0.001 to 0.01
7 | O[C@@H]1COCC[C@H]1Nc1nnc(-c2ccc(C(F)(F)F)cc2CC(F)(F)F)c2cccn12 [Compound 112, (3S,4R)-4-({1-[2-(2,2,2-trifluoroethyl)-4-(trifluoromethyl)phenyl]pyrrolo[1,2-d][1,2,4]triazin-4-yl}amino)oxan-3-ol] | 0.001 to 0.01
8 | O[C@H]1COCC[C@H]1Nc1nnc(-c2ccc(C(F)(F)F)cc2CC(F)(F)F)c2cccn12 [Compound 114, (3R,4R)-4-({1-[2-(2,2,2-trifluoroethyl)-4-(trifluoromethyl)phenyl]pyrrolo[1,2-d][1,2,4]triazin-4-yl}amino)oxan-3-ol] | 0.001 to 0.01
9 | COc1ccc(-c2nnc(Nc3cc[nH]n3)n3ccc(F)c23)c(C(F)(F)F)c1 [Compound 117, 8-fluoro-1-[4-methoxy-2-(trifluoromethyl)phenyl]-N-(1H-pyrazol-3-yl)pyrrolo[1,2-d][1,2,4]triazin-4-amine] | 0.01 to 0.1
10 | COc1cc(C)c(-c2nnc(N[C@@H]3CCCN(C)C3)n3cccc23)c(F)c1 [Compound 118, 1-(2-fluoro-4-methoxy-6-methylphenyl)-N-[(3R)-1-methylpiperidin-3-yl]pyrrolo[1,2-d][1,2,4]triazin-4-amine] | < 0.001
11 | CCN1CCC[C@@H](Nc2nnc(-c3ccc(C(F)(F)F)cc3OC(F)(F)F)c3cccn23)C1 [Compound 119, N-[(3R)-1-ethylpiperidin-3-yl]-1-[2-(trifluoromethoxy)-4-(trifluoromethyl)phenyl]pyrrolo[1,2-d][1,2,4]triazin-4-amine] | < 0.001
12 | OCCN1CCC[C@@H](Nc2nnc(-c3ccc(C(F)(F)F)cc3OC(F)(F)F)c3cccn23)C1 [Compound 120, 2-[(3R)-3-({1-[2-(trifluoromethoxy)-4-(trifluoromethyl)phenyl]pyrrolo[1,2-d][1,2,4]triazin-4-yl}amino)piperidin-1-yl]ethan-1-ol] | < 0.001
13 | O[C@H]1CCCC[C@@H]1Nc1nnc(-c2ccc(C(F)(F)F)cc2OC(F)(F)F)c2cccn12 [Compound 121, (1S,2S)-2-({1-[2-(trifluoromethoxy)-4-(trifluoromethyl)phenyl]pyrrolo[1,2-d][1,2,4]triazin-4-yl}amino)cyclohexan-1-ol] | 0.01 to 0.1
14 | C[C@]1(O)C[C@@H](Nc2nnc(-c3ccc(C(F)(F)F)cc3OC(F)(F)F)c3cccn23)C1 [Compound 123, (1s,3s)-1-methyl-3-({1-[2-(trifluoromethoxy)-4-(trifluoromethyl)phenyl]pyrrolo[1,2-d][1,2,4]triazin-4-yl}amino)cyclobutan-1-ol] | 0.001 to 0.01
15 | O=C1NCCC1Nc1nnc(-c2ccc(C(F)(F)F)cc2OC(F)(F)F)c2cccn12 (stereo not drawn) [Compound 124, 3-({1-[2-(trifluoromethoxy)-4-(trifluoromethyl)phenyl]pyrrolo[1,2-d][1,2,4]triazin-4-yl}amino)pyrrolidin-2-one] | 0.001 to 0.01
16 | COc1ccc(-c2nnc(N[C@H]3C[C@@](C)(O)C3)n3ccc(F)c23)c(C(F)(F)F)c1 [Compound 130, (1s,3s)-3-({8-fluoro-1-[4-methoxy-2-(trifluoromethyl)phenyl]pyrrolo[1,2-d][1,2,4]triazin-4-yl}amino)-1-methylcyclobutan-1-ol] | 0.001 to 0.01

Continued, values first:

Row | IC50 [µM] | SMILES
17 | 0.001 to 0.01 | Oc1cccc(CNc2nnc(-c3ccc(C(F)(F)F)cc3OC(F)F)c3cccn23)c1 [Compound 101, 3-[{{1-[2-(difluoromethoxy)-4-(trifluoromethyl)phenyl]pyrrolo[1,2-d][1,2,4]triazin-4-yl}amino)methyl]phenol]
18 | 0.01 to 0.1 | Cc1cc2c(-c3ccc(C(F)(F)F)cc3C(F)(F)F)nnc(N[C@H]3C[C@@](C)(O)C3)n2c1 [Compound 107, (1s,3s)-3-({1-[2,4-bis(trifluoromethyl)phenyl]-7-methylpyrrolo[1,2-d][1,2,4]triazin-4-yl}amino)-1-methylcyclobutan-1-ol]
19 | 0.001 to 0.01 | Cc1cc2c(-c3ccc(C(F)(F)F)cc3C(F)(F)F)nnc(N[C@@H]3CCCN(C)C3)n2c1 [Compound 109, 1-[2,4-bis(trifluoromethyl)phenyl]-7-methyl-N-[(3R)-1-methylpiperidin-3-yl]pyrrolo[1,2-d][1,2,4]triazin-4-amine]
20 | 0.001 to 0.01 | O[C@@H]1CCCC[C@H]1Nc1nnc(-c2ccc(C(F)(F)F)cc2OC(F)F)c2cccn12 [Compound 110, (1R,2R)-2-({1-[2-(difluoromethoxy)-4-(trifluoromethyl)phenyl]pyrrolo[1,2-d][1,2,4]triazin-4-yl}amino)cyclohexan-1-ol]
21 | 0.001 to 0.01 | O[C@H]1CCCC[C@@H]1Nc1nnc(-c2ccc(C(F)(F)F)cc2CC(F)(F)F)c2cccn12 [Compound 111, (1S,2S)-2-({1-[2-(2,2,2-trifluoroethyl)-4-(trifluoromethyl)phenyl]pyrrolo[1,2-d][1,2,4]triazin-4-yl}amino)cyclohexan-1-ol]
22 | 0.001 to 0.01 | O[C@H]1COCC[C@@H]1Nc1nnc(-c2ccc(C(F)(F)F)cc2CC(F)(F)F)c2cccn12 [Compound 113, (3R,4S)-4-({1-[2-(2,2,2-trifluoroethyl)-4-(trifluoromethyl)phenyl]pyrrolo[1,2-d][1,2,4]triazin-4-yl}amino)oxan-3-ol]
23 | 0.001 to 0.01 | O[C@@H]1COCC[C@@H]1Nc1nnc(-c2ccc(C(F)(F)F)cc2CC(F)(F)F)c2cccn12 [Compound 115, (3S,4S)-4-({1-[2-(2,2,2-trifluoroethyl)-4-(trifluoromethyl)phenyl]pyrrolo[1,2-d][1,2,4]triazin-4-yl}amino)oxan-3-ol]
24 | 0.01 to 0.1 | COc1ccc(-c2nnc(NC3CCNC3=O)n3ccc(F)c23)c(C(F)(F)F)c1 (stereo not drawn) [Compound 116, 3-({8-fluoro-1-[4-methoxy-2-(trifluoromethyl)phenyl]pyrrolo[1,2-d][1,2,4]triazin-4-yl}amino)pyrrolidin-2-one]
25 | 0.001 to 0.01 | O[C@H]1CCC[C@@H](Nc2nnc(-c3ccc(C(F)(F)F)cc3OC(F)(F)F)c3cccn23)C1 [Compound 122, (1S,3R)-3-({1-[2-(trifluoromethoxy)-4-(trifluoromethyl)phenyl]pyrrolo[1,2-d][1,2,4]triazin-4-yl}amino)cyclohexan-1-ol]
26 | 0.1 to 0.3 | COc1ccc(-c2nnc(NCc3nnnn3C)n3cccc23)c(OC(F)(F)F)c1 [Compound 125, 1-[4-methoxy-2-(trifluoromethoxy)phenyl]-N-[(1-methyl-1H-tetrazol-5-yl)methyl]pyrrolo[1,2-d][1,2,4]triazin-4-amine]
27 | 0.01 to 0.1 | O[C@@H]1CCCCC[C@H]1Nc1nnc(-c2ccc(C(F)(F)F)cc2CC(F)(F)F)c2cccn12.O[C@H]1CCCCC[C@@H]1Nc1nnc(-c2ccc(C(F)(F)F)cc2CC(F)(F)F)c2cccn12 [Compound 127, (1R,2R)-2-({1-[2-(2,2,2-trifluoroethyl)-4-(trifluoromethyl)phenyl]pyrrolo[1,2-d][1,2,4]triazin-4-yl}amino)cycloheptan-1-ol AND (1S,2S)-2-({1-[2-(2,2,2-trifluoroethyl)-4-(trifluoromethyl)phenyl]pyrrolo[1,2-d][1,2,4]triazin-4-yl}amino)cycloheptan-1-ol]
28 | 0.001 to 0.01 | O[C@@H]1CCCC[C@H](Nc2nnc(-c3ccc(C(F)(F)F)cc3CC(F)(F)F)c3cccn23)C1.O[C@H]1CCCC[C@@H](Nc2nnc(-c3ccc(C(F)(F)F)cc3CC(F)(F)F)c3cccn23)C1 [Compound 128, (1S,3R)-3-({1-[2-(2,2,2-trifluoroethyl)-4-(trifluoromethyl)phenyl]pyrrolo[1,2-d][1,2,4]triazin-4-yl}amino)cycloheptan-1-ol AND (1R,3S)-3-({1-[2-(2,2,2-trifluoroethyl)-4-(trifluoromethyl)phenyl]pyrrolo[1,2-d][1,2,4]triazin-4-yl}amino)cycloheptan-1-ol]
29 | < 0.001 | COc1ccc(-c2nnc(N[C@@H]3CCCN(C)C3)n3cc(C)cc23)c(OC(F)(F)F)c1 [Compound 131, 1-[4-methoxy-2-(trifluoromethoxy)phenyl]-7-methyl-N-[(3R)-1-methylpiperidin-3-yl]pyrrolo[1,2-d][1,2,4]triazin-4-amine]
30 | 0.01 to 0.1 | Cc1cc2c(-c3ccc(C(F)(F)F)cc3C(F)(F)F)nnc(N[C@H]3CCCC[C@@H]3O)n2c1 [Compound 132, (1S,2S)-2-({1-[2,4-bis(trifluoromethyl)phenyl]-7-methylpyrrolo[1,2-d][1,2,4]triazin-4-yl}amino)cyclohexan-1-ol]
